{"source": "patent US20040109845A1", "about": "“Method for inhibiting articular cartilage matrix calcification” (priority 2001, published 2004)", "type_in_all_cases": "cell-based, human", "key": {"[1]": {"test_system": "TGase activity in knee meniscal cells and TC28 cells", "assay": "TGase activity in nonadherent nodule-forming culture on polyHEME", "conditions": "polyHEME plates, β-glycerophosphate, ascorbate, dexamethasone, up to 10 days; cytokines 10 ng/ml or TGase transfection", "method": "FIG. 10 refers to effects of direct Factor XIIIa and tTGase expression on TGase activity in meniscal cells and TC28 cells. Human chondrocytic TC28 cells or normal knee meniscal cells (5×10^5), were plated in 60 mm dishes and allowed to adhere overnight, as described in the Methods. Two μg of plasmid DNAs or empty plasmid vector were then transfected, performed as described above. After 24 hrs, the cells were removed from the dishes and plated on polyHEME-coated tissue culture plates and media supplemented with 10 mM P-glycerophosphate, ascorbatte (50 μg/ml) and dexamethasone (10^−8 M), which stimulated the cells to form mineralizing nodules for 3-10 days in culture. For comparison purposes, cells were treated only with IL-1 or TGFβ (10 ng/ml each) for up to 10 days. At each time point designated, the cell nodules were collected and lysed, and TGase activity then determined as previously described. For meniscal cells, data pooled from 6 donors studied in triplicate. For TC28 cells, n=6 each, studied in triplicate. Statistics not indicated on this graph, but p<0.05 for the increases in TGase activities in response to both Factor XIIIa and tTGase transfection, and for IL-1 treatment, at all time points.\nTGase activity was measured by modifications to a previously described method (35). Specifically, we coated 96 well ImmunoModule plates (Nunc, Rochester, N.Y.) with 200 μl of 20 mg/ml N,N-dimethylcasein for 1 hr at 23° C. The N,N-dimethylcasein was removed and nonspecific protein binding was blocked by adding 3% BSA in 100 mM Tris, pH 8.5, 150 mM NaCl, 0.05% Tween-20 (TBST) to each well for an additional 1 hr at 23° C. Then, aliquots of 5 μg of total cellular protein from meniscal or TC28 cells that had been lysed and sonicated (in 5 mM Tris HCl, 0.25 M sucrose, 0.2 mM MgSO4, 2 mM DTT, 0.4 mM PMSF, 0.4% Triton X100, pH 7.5), were added to the plate in triplicate. To measure TGase in extracts of whole menisci, 50 mg dry weight of tissue from the central zone of each medial meniscus was used as the source (after solubilization and sonication) for aliquots of 5 μg of soluble protein. Fifty μl of solution A (100 mM Tris, pH 8.5 and 20 mM CaCl2) was added to all samples for TGase assay, followed by the addition of 50 μl of solution B (100 mM Tris, pH 8.5, 40 mM DTT and freshly added 2 mM 5-(Biotinamido) pentylamine (BP)). The plates were incubated for 1 hr at 37° C. The wells were washed once with TBST containing 1 mM EDTA and then three times with TBST. […] Readings at OD410 were taken over 15 minutes. […] TGase activity was designated as the amount of BP incorporated into casein (per μg cellular DNA, determined chromogenically following precipitation in perchlorate (28), or, where indicated, per μg protein, determined as previously described (28)). […]"}, "[2]": {"test_system": "alkaline phosphatase (AP)", "assay": "AP activity of cultured meniscal cells", "conditions": "48 h, 10 ng/ml", "method": "Meniscal cells (from the same donors used in FIG. 3 above) were released from the matrix with collagenase digestion, and grown in monolayer culture for 72 hrs, then trypsinized and plated in 35 mm dishes (containing 3×10^5 cells) and allowed to adhere overnight. Cells were then treated for 48 h with 10 ng/ml of TGFβ or IL-1β (10 ng/ml) in 1% FCS-containing DMEM high glucose medium. The cells were collected and lysed for the TGase (FIG. 5A), NTPPPH (FIG. 5B), and AP (FIG. 5C) assays as described in the Methods. Five micrograms of soluble protein was studied in triplicate for each assay performed as previously described. Results were analyzed by linear regression, with results indicated.\nPPi was determined by differential adsorption on activated charcoal of UDP-D-[6-^3H] glucose (Amersham, Chicago, Ill.) from the reaction product 6-phospho [6-^3H] gluconate (28). Units of NTPPPH and AP were designated as micromoles of substrate hydrolyzed per hour (per μg DNA in each sample) (28). NO release by cultured meniscal cells was measured using the Greiss reaction (33). Concentrations or specific activities of PPi, NTPPPH, and AP were equalized for cellular DNA concentrations in each well."}, "[3]": {"test_system": "TGase activity (tTGase and Factor XIIIa) in meniscal cells", "assay": "TGase activity in cultured knee meniscal cells (BP incorporation into N,N-dimethylcasein)", "conditions": "monolayer culture, 48-72 hrs; IL-1β, TGFβ, TNFα 10 ng/ml; Noc-12 2.5-25 μM; Sin-1 1-10 μM", "method": "Meniscal cells were maintained in DMEM high glucose and supplemented with 10% FCS, 1% L-glutamine, 100 units/ml Penicillin and 50 μg/ml Streptomycin (Omega Scientific, Tarzana, Calif.) and cultured at 37° C. with 5% CO2. In monolayer cell culture studies involving stimulation by TGFE[…] or IL-1, the cells were placed in DMEM high glucose containing 1% FCS, 1% L-glutamine, 100 units/ml Penicillin and 50 μg/ml Streptomycin. In all other studies, the cells were cultured in complete medium (as described above). Only primary or first passage meniscal cells were studied.\nTGase activity was measured by modifications to a previously described method (35). Specifically, we coated 96 well ImmunoModule plates (Nunc, Rochester, N.Y.) with 200 μl of 20 mg/ml N,N-dimethylcasein for 1 hr at 23° C. The N,N-dimethylcasein was removed and nonspecific protein binding was blocked by adding 3% BSA in 100 mM Tris, pH 8.5, 150 mM NaCl, 0.05% Tween-20 (TBST) to each well for an additional 1 hr at 23° C. Then, aliquots of 5 μg of total cellular protein from meniscal or TC28 cells that had been lysed and sonicated (in 5 mM Tris HCl, 0.25 M sucrose, 0.2 mM MgSO4, 2 mM DTT, 0.4 mM PMSF, 0.4% Triton X100, pH 7.5), were added to the plate in triplicate. To measure TGase in extracts of whole menisci, 50 mg dry weight of tissue from the central zone of each medial meniscus was used as the source (after solubilization and sonication) for aliquots of 5 μg of soluble protein. Fifty μl of solution A (100 mM Tris, pH 8.5 and 20 mM CaCl2) was added to all samples for TGase assay, followed by the addition of 50 μl of solution B (100 mM Tris, pH 8.5, 40 mM DTT and freshly added 2 mM 5-(Biotinamido) pentylamine (BP)). The plates were incubated for 1 hr at 37° C. The wells were washed once with TBST containing 1 mM EDTA and then three times with TBST. One hundred μl of a 1:500 dilution of streptavidin-AP in 3% BSA/TBST was added to each well for 1 hr at 23° C. The wells were washed twice with TBST, and 200 μl of solution C (100 mM Tris, pH 9.8, mM NaCl, 5 mM MgCl2, 1 mg/ml of freshly added p-nitrophenylphosphate) was added to each well. Readings at OD410 were taken over 15 minutes. Purified guinea pig liver TGase (Sigma) was used to prepare a standard curve. TGase activity was designated as the amount of BP incorporated into casein (per μg cellular DNA, determined chromogenically following precipitation in perchlorate (28), or, where indicated, per μg protein, determined as previously described (28)).\nTo directly induce expression of each TGase in meniscal cells, 5×10^5 primary cells were plated in 60 mm dishes and allowed to adhere overnight. We modified (28) the manufacturer's protocol for the Lipofectamine Plus kit (Life Technologies, Grand Island, N.Y.). To optimize the transfection of meniscal cells, we added 2.0 ml of serum-free DMEM/F12 containing 0.00015% digitonin to washed cells and incubated for 3 min at 23° C. Then, media was removed, and cells transfected at 37° C. for 7 hrs, followed by removal of the media and addition of complete DMEM high glucose medium. Transfection of each TGase into TC28 cells was done by the same procedure, with the exception that the digitonin permeabilization step was omitted."}}}
{"substance": "IL-1β: Human recombinant IL-1β purchased from R&D Systems", "values": [{"measurement": "TGase activity under mineralizing nonadherent conditions", "setting": "[1]", "result": "induced significant increases in TGase activity"}, {"measurement": "AP activity", "setting": "[2]", "result": "did not significantly change"}, {"measurement": "Induction of TGase activity in cultured normal knee meniscal cells", "setting": "[3]", "result": "induced increased TGase activity in a donor age-dependent manner"}]}
